# Data taken from paper PMC6934184, “Selective DNA-PKcs inhibition extends the therapeutic index of localized radiotherapy and chemotherapy” (The Journal of Clinical Investigation, 2019).
# Target: T1, CSNK1G3 (CK1 gamma 3) (Homo sapiens, UniProt Q9Y6M4)
# T1 construct: purchased Thermo Fisher Scientific (Life Technologies) SelectScreen
# Experiment: SelectScreen Z'LYTE
# Type: biochemical
# How it was run: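 Percent values come from Thermo SelectScreen profiling of NU5455, combining activity and binding assays. CSF1R was run in Z'LYTE format at Km app ATP, and CAMK1 in Adapta format with ATP listed at 10.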
# T1 sequence (Q9Y6M4 whole entry): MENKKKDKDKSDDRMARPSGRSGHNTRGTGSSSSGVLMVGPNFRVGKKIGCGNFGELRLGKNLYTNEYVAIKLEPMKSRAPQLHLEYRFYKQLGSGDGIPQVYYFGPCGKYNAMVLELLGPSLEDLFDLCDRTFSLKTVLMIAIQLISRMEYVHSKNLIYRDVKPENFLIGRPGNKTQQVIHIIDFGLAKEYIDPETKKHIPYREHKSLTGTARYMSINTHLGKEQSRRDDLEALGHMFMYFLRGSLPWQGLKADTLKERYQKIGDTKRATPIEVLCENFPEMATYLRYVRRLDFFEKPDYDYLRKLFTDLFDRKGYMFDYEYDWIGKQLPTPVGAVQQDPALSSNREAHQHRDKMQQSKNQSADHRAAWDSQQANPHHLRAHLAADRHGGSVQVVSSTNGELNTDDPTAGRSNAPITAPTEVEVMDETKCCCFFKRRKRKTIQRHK
smiles,measurement,value
CN(C(=O)CN1CCOCC1)c1ccc2sc3c(-c4cccc5c(=O)cc(N6CC7CCC(C6)O7)oc45)cccc3c2c1 [NU5455],inhibition at 1 µM,4.2%
